Measured values published in ChEMBL document CHEMBL5104111, “Boron-Containing heterocycles as promising pharmacological agents” (Bioorg Med Chem, 2022).
Values after ≈ are worked out from the molar mass of the structure shown.

Assays:
LN-229 = experiment: Anticancer activity against human LN-229 cells assessed as cell growth inhibition by trypan blue exclusion assay; assay type: functional, cell-based
[1] = Inhibition of beta-lactamase TEM-1 (unknown origin) using nitrocefin as substrate preincubated for 5 mins followed by substrate addition measured after 1 to 5 mins by colorimetry; parameters: species or system Bacteria
[2] = Inhibition of beta-lactamase P99 (unknown origin) using nitrocefin as substrate preincubated for 5 mins followed by substrate addition measured after 1 to 5 mins by colorimetry; parameters: species or system Bacteria
[3] = Inhibition of beta-lactamase KPC-2 (unknown origin) using nitrocefin as substrate preincubated for 5 mins followed by substrate addition measured after 1 to 5 mins by colorimetry; parameters: species or system Bacteria
[4] = Inhibition of beta-lactamase CTX-M-15 (unknown origin) using nitrocefin as substrate preincubated for 5 mins followed by substrate addition measured after 1 to 5 mins by colorimetry; parameters: species or system Bacteria
[5] = Inhibition of beta-lactamase OXA-24 (unknown origin) using nitrocefin as substrate preincubated for 5 mins followed by substrate addition measured after 1 to 5 mins in presence of KHCO3 by colorimetry; parameters: species or system Bacteria
[6] = Inhibition of Escherichia coli LeuRS using Escherichia coli tRNA as substrate incubated for 20 mins in presence of 14C-leucine/ATP
[7] = Bioavailability in monkey; assay type: ADME, organism-based, Macaca mulatta; conditions: rhesus monkey, in vivo
Escherichia coli [8] = experiment: Antibacterial activity against Escherichia coli ATCC 25922 assessed as bacterial growth inhibition; assay type: functional
Plasmodium falciparum [9] = experiment: Antimalarial activity against Plasmodium falciparum 3D7 assessed as parasite growth inhibition; assay type: functional, organism-based
Plasmodium falciparum [10] = experiment: Antimalarial activity against Plasmodium falciparum W2 assessed as parasite growth inhibition; assay type: functional, organism-based
[11] = target: cAMP and cAMP-inhibited cGMP 3',5'-cyclic phosphodiesterase 10A (Homo sapiens, UniProt Q9Y233); experiment: Inhibition of PDE10A (unknown origin)
cAMP and cAMP-inhibited cGMP 3',5'-cyclic phosphodiesterase 10A, sequence (Q9Y233 whole entry): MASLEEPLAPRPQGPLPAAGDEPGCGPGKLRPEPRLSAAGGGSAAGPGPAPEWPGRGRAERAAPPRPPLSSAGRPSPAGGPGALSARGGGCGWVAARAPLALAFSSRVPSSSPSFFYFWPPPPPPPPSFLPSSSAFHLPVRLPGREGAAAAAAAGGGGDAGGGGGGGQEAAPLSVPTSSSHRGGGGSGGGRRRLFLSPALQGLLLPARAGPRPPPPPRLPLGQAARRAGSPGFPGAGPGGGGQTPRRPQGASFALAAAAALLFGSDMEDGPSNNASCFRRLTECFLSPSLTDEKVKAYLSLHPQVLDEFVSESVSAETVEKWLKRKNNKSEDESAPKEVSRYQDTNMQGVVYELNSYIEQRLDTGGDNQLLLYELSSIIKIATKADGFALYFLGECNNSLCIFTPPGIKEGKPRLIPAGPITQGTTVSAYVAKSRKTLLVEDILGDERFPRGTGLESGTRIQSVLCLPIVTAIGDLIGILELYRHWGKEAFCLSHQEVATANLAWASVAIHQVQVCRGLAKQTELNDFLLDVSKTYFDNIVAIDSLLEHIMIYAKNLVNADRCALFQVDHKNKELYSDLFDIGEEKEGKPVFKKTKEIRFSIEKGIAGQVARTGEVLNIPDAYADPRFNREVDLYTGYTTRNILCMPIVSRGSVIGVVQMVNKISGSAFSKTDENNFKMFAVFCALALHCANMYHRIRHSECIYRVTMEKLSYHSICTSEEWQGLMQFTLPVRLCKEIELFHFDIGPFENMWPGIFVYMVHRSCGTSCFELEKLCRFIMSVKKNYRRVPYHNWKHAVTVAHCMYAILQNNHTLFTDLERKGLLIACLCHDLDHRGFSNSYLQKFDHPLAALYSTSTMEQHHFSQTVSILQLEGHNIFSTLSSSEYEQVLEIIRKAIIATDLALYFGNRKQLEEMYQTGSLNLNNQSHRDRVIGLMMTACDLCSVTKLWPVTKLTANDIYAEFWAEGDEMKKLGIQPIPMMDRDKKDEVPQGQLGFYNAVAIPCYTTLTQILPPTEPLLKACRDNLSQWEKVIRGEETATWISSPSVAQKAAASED

[12] = target: T1, 3',5'-cyclic-AMP phosphodiesterase 4B (Homo sapiens, UniProt Q07343); experiment: Displacement of […] from full-length recombinant human PDE4B1 by fluorescence polarisation assay
T1 sequence (Q07343 whole entry, the tested form may be a part): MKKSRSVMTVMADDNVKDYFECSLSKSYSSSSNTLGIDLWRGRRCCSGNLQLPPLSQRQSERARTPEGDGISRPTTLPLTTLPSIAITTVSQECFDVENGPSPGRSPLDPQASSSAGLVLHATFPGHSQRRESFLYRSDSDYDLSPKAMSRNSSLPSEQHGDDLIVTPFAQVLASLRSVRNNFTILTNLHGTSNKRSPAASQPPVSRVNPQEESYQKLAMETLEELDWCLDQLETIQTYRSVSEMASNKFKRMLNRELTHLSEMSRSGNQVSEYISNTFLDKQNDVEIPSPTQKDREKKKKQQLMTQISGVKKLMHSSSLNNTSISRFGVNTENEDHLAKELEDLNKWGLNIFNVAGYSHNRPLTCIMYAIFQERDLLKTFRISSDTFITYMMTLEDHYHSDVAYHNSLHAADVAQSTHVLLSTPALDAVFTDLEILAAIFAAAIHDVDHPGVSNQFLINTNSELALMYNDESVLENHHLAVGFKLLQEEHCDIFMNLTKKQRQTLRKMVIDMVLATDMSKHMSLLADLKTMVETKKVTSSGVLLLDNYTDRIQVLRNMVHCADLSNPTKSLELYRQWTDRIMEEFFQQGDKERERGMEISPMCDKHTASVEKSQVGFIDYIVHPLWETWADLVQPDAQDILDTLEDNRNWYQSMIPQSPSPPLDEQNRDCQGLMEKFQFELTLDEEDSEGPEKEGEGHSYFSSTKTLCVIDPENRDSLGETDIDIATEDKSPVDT

[13] = target: T1, 3',5'-cyclic-AMP phosphodiesterase 4B; experiment: Displacement of […] from full-length recombinant human PDE4B2 catalytic domain by fluorescence polarisation assay
[14] = target: 3',5'-cyclic-AMP phosphodiesterase 4D (Homo sapiens, UniProt Q08499); experiment: Displacement of […] from full-length recombinant human PDE4D7 by fluorescence polarisation assay
3',5'-cyclic-AMP phosphodiesterase 4D, sequence (Q08499 whole entry): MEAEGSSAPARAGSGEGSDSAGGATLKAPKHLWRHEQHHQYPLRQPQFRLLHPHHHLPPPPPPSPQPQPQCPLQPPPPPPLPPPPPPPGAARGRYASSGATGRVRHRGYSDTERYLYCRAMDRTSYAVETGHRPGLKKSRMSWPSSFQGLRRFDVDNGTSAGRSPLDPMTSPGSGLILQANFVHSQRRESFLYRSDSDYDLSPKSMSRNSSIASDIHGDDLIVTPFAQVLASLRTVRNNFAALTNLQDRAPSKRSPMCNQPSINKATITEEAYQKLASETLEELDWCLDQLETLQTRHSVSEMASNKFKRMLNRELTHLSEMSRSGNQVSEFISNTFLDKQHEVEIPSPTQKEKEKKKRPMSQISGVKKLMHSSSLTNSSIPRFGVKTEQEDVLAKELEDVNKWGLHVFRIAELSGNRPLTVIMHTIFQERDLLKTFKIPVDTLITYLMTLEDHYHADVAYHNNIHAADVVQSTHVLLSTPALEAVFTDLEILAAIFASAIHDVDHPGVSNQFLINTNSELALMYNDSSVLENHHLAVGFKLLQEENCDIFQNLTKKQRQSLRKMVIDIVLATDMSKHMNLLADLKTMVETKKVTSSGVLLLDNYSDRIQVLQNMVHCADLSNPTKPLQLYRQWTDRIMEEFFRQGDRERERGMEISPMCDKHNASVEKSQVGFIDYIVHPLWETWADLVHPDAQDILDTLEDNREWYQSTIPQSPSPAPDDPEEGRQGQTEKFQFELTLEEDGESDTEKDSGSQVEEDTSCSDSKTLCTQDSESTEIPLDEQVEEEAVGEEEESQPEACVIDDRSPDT

[15] = target: T1, 3',5'-cyclic-AMP phosphodiesterase 4B; experiment: Displacement of […] from full-length recombinant human PDE4B2 by fluorescence polarisation assay
[16] = target: 3',5'-cyclic-AMP phosphodiesterase 4C (Homo sapiens, UniProt Q08493); experiment: Displacement of […] from full-length recombinant human PDE4C1 by fluorescence polarisation assay
3',5'-cyclic-AMP phosphodiesterase 4C, sequence (Q08493 whole entry): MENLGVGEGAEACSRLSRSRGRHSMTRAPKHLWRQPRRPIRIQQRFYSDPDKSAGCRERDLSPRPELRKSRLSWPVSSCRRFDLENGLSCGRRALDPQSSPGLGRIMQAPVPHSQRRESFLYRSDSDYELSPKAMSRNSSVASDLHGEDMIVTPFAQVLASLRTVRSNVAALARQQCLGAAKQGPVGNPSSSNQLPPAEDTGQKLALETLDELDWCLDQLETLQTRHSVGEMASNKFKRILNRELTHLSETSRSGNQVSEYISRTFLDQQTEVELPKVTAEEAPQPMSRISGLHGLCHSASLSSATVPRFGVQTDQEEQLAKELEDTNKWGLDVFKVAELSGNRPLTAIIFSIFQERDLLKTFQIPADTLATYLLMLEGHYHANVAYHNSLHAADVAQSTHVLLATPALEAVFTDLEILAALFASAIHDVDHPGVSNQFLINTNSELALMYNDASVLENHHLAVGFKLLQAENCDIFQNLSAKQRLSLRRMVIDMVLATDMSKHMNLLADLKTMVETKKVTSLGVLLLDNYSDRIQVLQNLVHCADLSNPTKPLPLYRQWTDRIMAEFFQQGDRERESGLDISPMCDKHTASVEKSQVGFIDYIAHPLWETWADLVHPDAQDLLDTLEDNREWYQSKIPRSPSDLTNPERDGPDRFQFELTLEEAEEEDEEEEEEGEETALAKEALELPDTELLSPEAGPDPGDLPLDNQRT

Onchocerca volvulus = experiment: Antiparasitic activity against third stage larvae of Onchocerca volvulus assessed as parasite growth inhibition incubated for 6 days by inverted microscopy; assay type: functional, organism-based; conditions: 144 h
Staphylococcus aureus = experiment: Antibacterial activity against healthcare-associated Methicillin-resistant Staphylococcus aureus assessed as bacterial growth inhibition; assay type: functional
[17] = Lipophilicity, log P of the compound; assay type: physicochemical; conditions: octanol/water
THP-1 = experiment: Antiinflammatory activity against human THP-1 cells assessed as inhibition of LPS-stimulated IL-1beta release measured after 1 hr by ELISA; assay type: functional, cell-based; conditions: THP-1, 1 h
[18] = Binding affinity to Cryptococcus neoformans beta-carbonic anhydrase assessed as inhibition constant preincubated for 15 mins by bromothymol blue staining based assay
Carbonic anhydrase 1 = Carbonic anhydrase 1 (Homo sapiens, UniProt P00915); experiment: Binding affinity to human CA-I assessed as inhibition constant preincubated for 15 mins by bromothymol blue staining based assay
Carbonic anhydrase 1, sequence (P00915 whole entry): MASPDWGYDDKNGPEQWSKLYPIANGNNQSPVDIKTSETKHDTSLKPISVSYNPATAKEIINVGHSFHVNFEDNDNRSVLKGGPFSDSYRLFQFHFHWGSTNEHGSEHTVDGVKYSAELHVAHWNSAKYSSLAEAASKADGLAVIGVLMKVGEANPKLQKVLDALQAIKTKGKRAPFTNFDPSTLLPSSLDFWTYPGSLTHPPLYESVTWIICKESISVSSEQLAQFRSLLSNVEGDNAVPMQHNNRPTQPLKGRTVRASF

[19] = Binding affinity to Candida glabrata beta-carbonic anhydrase assessed as inhibition constant preincubated for 15 mins by bromothymol blue staining based assay; parameters: species or system Nakaseomyces glabratus
Carbonic anhydrase 2 = Carbonic anhydrase 2 (Homo sapiens, UniProt P00918); experiment: Binding affinity to human CA-II assessed as inhibition constant preincubated for 15 mins by bromothymol blue staining based assay
Hepatitis C virus = experiment: Antiviral activity against HCV GT1a316Y assessed as reduction in viral replication; assay type: functional, organism-based, Hepacivirus hominis
[20] = Half life in human; assay type: ADME
[21] = Dissociation constant, pKa of the compound; assay type: physicochemical
[22] = Cmax in Sprague-Dawley rat at 1 mg/kg, po or 1 mg/kg, iv measured upto 7 hrs by LC/MS analysis; assay type: ADME, organism-based; parameters: time < 7 hrs, dose 1 mg/kg, route po; conditions: in vivo
[23] = Bioavailability in Sprague-Dawley rat […] measured upto 7 hrs by LC/MS analysis; assay type: ADME, organism-based; conditions: in vivo
[24] = AUC in Sprague-Dawley rat at 1 mg/kg, po measured upto 7 hrs by LC/MS analysis; assay type: ADME, organism-based; parameters: dose 1 mg/kg, time < 7 hrs, route po; conditions: in vivo
[25] = Tmax in Sprague-Dawley rat at 1 mg/kg, po or 1 mg/kg, iv measured upto 7 hrs by LC/MS analysis; assay type: ADME, organism-based; conditions: in vivo
[26] = target: Cyclin-dependent kinase 2 (Homo sapiens, UniProt P24941); experiment: Inhibition of CDK2 (unknown origin) using peptide substrate in presence of ATP
[27] = Half life in Sprague-Dawley rat at 1 mg/kg, po or 1 mg/kg, iv measured upto 7 hrs by LC/MS analysis; assay type: ADME, organism-based; conditions: in vivo
Trypanosoma brucei [28] = experiment: Antiparasitic activity against Trypanosoma brucei 427 assessed as parasite growth inhibition incubated for 24 hrs by fluorescence based assay; assay type: functional, organism-based; conditions: Trypanosoma brucei, 427, 24 h
[29] = tested on: Mycobacterium tuberculosis; experiment: Antibacterial activity against Mycobacterium tuberculosis assessed as bacterial growth inhibition by broth microdilution method; assay type: functional
Trypanosoma brucei [30] = experiment: Antitrypanosomal activity against Trypanosoma brucei assessed as parasite growth inhibition; assay type: functional, organism-based
HepG2 = experiment: Cytotoxicity against human HepG2 cells assessed as cell growth inhibition incubated for 2 days by Cell Titer Glo assay; assay type: functional, cell-based; conditions: HepG2, 48 h
[31] = tested on: Mycobacterium tuberculosis; experiment: Antibacterial activity against Mycobacterium tuberculosis H37Rv ATCC 25618 infected in human THP-1 cells assessed as bacterial growth inhibition at MOI of 1 incubated for 3 days by Cell Titer Glo assay; assay type: functional, organism-based; conditions: H37Rv ATCC 25618, THP-1, 72 h
[32] = tested on: Mycobacterium tuberculosis; experiment: Antibacterial activity against Mycobacterium tuberculosis H37Rv ATCC 25618 assessed as bacterial growth inhibition cultured in solid media incubated for 3 to 4 weeks; assay type: functional; conditions: time 3-4 weeks
[33] = tested on: Mycobacterium tuberculosis; experiment: Antibacterial activity against Mycobacterium tuberculosis H37Rv ATCC 25618 assessed as bacterial growth inhibition cultured in liquid media for 5 days by absorbance based assay; assay type: functional; conditions: H37Rv ATCC 25618, 120 h, time 5 day
Aspergillus niger [34] = experiment: Antifungal activity against Aspergillus niger assessed as fungal growth inhibition incubated for 48 hrs by agar diffusion method; assay type: functional
Penicillium ochrochloron = experiment: Antifungal activity against Penicillium ochrochloron assessed as fungal growth inhibition incubated for 72 hrs by agar diffusion method; assay type: functional
Candida albicans = experiment: Antifungal activity against Candida albicans assessed as fungal growth inhibition incubated for 48 hrs by agar diffusion method; assay type: functional
[35] = tested on: Mycobacterium tuberculosis; experiment: Antibacterial activity against Mycobacterium tuberculosis H37Rv assessed as bacterial growth inhibition cultured in 7H9 medium measured after 14 days by absorbance based assay; assay type: functional; conditions: 336 h, time 14 day
[36] = tested on: Mycobacterium tuberculosis; experiment: Antibacterial activity against Mycobacterium tuberculosis H37Rv assessed as bacterial growth inhibition cultured in GAST medium measured after 14 days by absorbance based assay; assay type: functional; conditions: 336 h, time 14 day
Escherichia coli [37] = experiment: Antibacterial activity against Escherichia coli expressing tolC assessed as bacterial growth inhibition by broth microdilution method; assay type: functional
[38] = tested on: Staphylococcus epidermidis; experiment: Antibacterial activity against Staphylococcus epidermidis assessed as bacterial growth inhibition by broth microdilution method; assay type: functional
Aspergillus niger [39] = experiment: Antifungal activity against Aspergillus niger assessed as fungal growth inhibition; assay type: functional
Plasmodium falciparum [40] = experiment: Antimalarial activity against multidrug-resistant Plasmodium falciparum W2 assessed as parasite growth inhibition incubated for 48 hrs by FACS analysis; assay type: functional, organism-based; conditions: W2, 48 h
Klebsiella aerogenes = experiment: Antibacterial activity against Enterobacter aerogenes ATCC 13048 assessed as bacterial growth inhibition at 10 mg/ml by hollow agar method; assay type: functional; conditions: read-out: IZ

CC(C)[C@@H]1[NH2+][B-](c2ccc(F)cc2F)(c2ccc(F)cc2F)OC1=O
IC50 (LN-229): 49000 nM

Cc1c(Oc2nc(N)ns2)cc2c(c1C)[C@@H](CC(=O)O)OB2O
IC50 [1]: < 5 nM | IC50 [2]: 12 nM | IC50 [3]: 26 nM | IC50 [4]: < 5 nM | IC50 [5]: 88 nM

Cl.NC[C@H]1OB(O)c2c1ccc1c2OCO1
IC50 [6]: 380 nM | bioavailability [7]: 100% | MIC (Escherichia coli [8]): 1 µg/mL

Cc1c(Oc2cnc(C(=O)N3CC(C)(O)C3)cn2)ccc2c1B(O)OC2
IC50 (Plasmodium falciparum [9]): 43000 nM | IC50 (Plasmodium falciparum [10]): 33000 nM

CN(C(=O)c1nc(-c2cccnc2)cs1)c1ccc(OCB2C=Cc3ccccc3N2)cc1
IC50 [11]: 330 nM

CC(C)OCCOc1ncc(Oc2ccc3c(c2)B(O)OC3)cc1C#N
IC50 [12]: 2.1 nM | IC50 [13]: 2.1 nM | IC50 [14]: 2.1 nM | IC50 [15]: 2.1 nM | IC50 [16]: 2.1 nM

COC(=O)Nc1nc2cc(C(=O)NCc3ccc4c(c3)B(O)OC4(C)C)ccc2[nH]1
IC50 (Onchocerca volvulus): 300 nM

OCc1ccc2c(c1)C=CB(c1ccc(O)c(C34CC5CC(CC(C5)C3)C4)c1)N2
MIC (Staphylococcus aureus): 64 µM (≈ 24.7 µg/mL) | logP [17]: 0.12

CC(=O)C1=C(C(Cl)(Cl)Cl)N[B-](c2ccccc2)(c2ccccc2)[O+]=C1C
IC50 (THP-1): 574 nM

O=[N+]([O-])c1ccc(NC(=S)Nc2ccc3c(c2)B(O)OC3)cc1
Ki [18]: 88 nM | Ki (Carbonic anhydrase 1): 6350 nM | Ki [19]: 89 nM | Ki (Carbonic anhydrase 2): 504 nM

CNC(=O)c1c(-c2ccc(F)cc2)oc2cc(N(c3cc(Cl)c4c(c3)COB4O)S(C)(=O)=O)c(C3CC3)cc12
EC50 (Hepatitis C virus): 32 nM | half-life [20]: 60 h | pKa [21]: 5.4

O=C(Cc1ccc(B2C=CC=CN2)cc1)Nc1cc(C2CC2)[nH]n1
Cmax [22]: 746 nM | bioavailability [23]: 29.3% | AUC at 7 h [24]: 0.613 µM·h | Tmax [25]: 1.5 h | IC50 [26]: 87 nM | half-life [27]: 11.6 h

O=C(/C=C/c1ccc2c(c1)OCO2)Nc1ccc2c(c1)B(O)OC2
IC50 (Trypanosoma brucei [28]): 86 nM | MIC99 [29]: 40.7 µM (≈ 13.2 µg/mL) | IC50 (Trypanosoma brucei [30]): 100 nM

Cc1c(OCc2ccccc2)ccc2c1B(O)OC2
IC50 (HepG2): > 100000 nM | IC50 [31]: 3600 nM | MIC [32]: 0.8 µM (≈ 0.203 µg/mL) | MIC [33]: 2 µM (≈ 0.508 µg/mL)

OB1OC(N2CCN(C3OB(O)c4cccc(F)c43)CC2)c2c(F)cccc21 (stereo unspecified)
inhibition zone (IZ) (Aspergillus niger [34]): 41 mm | inhibition zone (IZ) (Penicillium ochrochloron): 41 mm | inhibition zone (IZ) (Candida albicans): 35 mm

Nc1cc2c(cc1Br)COB2O
MIC99 [35]: 7.8 µM (≈ 1.78 µg/mL) | MIC99 [36]: 1.9 µM (≈ 0.433 µg/mL)

CC[C@H]1OC(=O)[C@H](C)[C@@H](O[C@H]2C[C@@](C)(OC)[C@@H](O)[C@H](C)O2)[C@H](C)[C@@H](O[C@@H]2O[C@H](C)C[C@H](N(C)C)[C@H]2O)[C@](C)(OC)C[C@@H](C)/C(=N\OCC(=O)NC[C@H]2OB(O)c3ccccc32)[C@H](C)[C@@H](O)[C@]1(C)O
MIC (Escherichia coli [37]): 8 µg/mL (≈ 8.28 µM) | MIC [38]: 0.5 µg/mL (≈ 0.518 µM)

OB1OC(N2CCN(c3ccc(F)cc3)CC2)c2ccccc21 (stereo unspecified)
MIC (Aspergillus niger [39]): 62.5 µg/mL (≈ 200 µM)

CCOc1ccc(Br)c2c1B(O)O[C@@H]2CC
IC50 (Plasmodium falciparum [40]): 490 nM

CCN(CC)c1ccc(B2Oc3ccc(C(C)(C)C)cc3O2)cc1
zone of inhibition at 10000 µg/mL (Klebsiella aerogenes): 30.3 mm
